Data taken from patent US20240408170A1, “COMPOSITION FOR DECOMPOSITION OF TRYPSIN OR TMPRSS2” (Riken, priority 2021, published 2024).

How the values were obtained:
recombinant mouse PRSS2 = target: T1, recombinant mouse PRSS2 (Mus musculus, UniProt P07146); assay: Trypsin decomposition in vitro by bacteria (western blot); assay type: biochemical; conditions: bacteria or culture supernatant incubated with recombinant mouse trypsin
T1 construct: purchased Sino Biological, Inc. 50383-M08H
T1 sequence (P07146 24-246): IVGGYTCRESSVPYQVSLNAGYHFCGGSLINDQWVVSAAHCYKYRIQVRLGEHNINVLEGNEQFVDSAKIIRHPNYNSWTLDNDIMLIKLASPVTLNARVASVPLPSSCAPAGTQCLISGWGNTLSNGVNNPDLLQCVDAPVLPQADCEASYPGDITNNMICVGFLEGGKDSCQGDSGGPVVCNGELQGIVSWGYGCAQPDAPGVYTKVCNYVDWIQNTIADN
Procedure: Mouse faecal samples were suspended and diluted 50-fold with phosphate buffered saline (PBS) to which a protease inhibitor cocktail (Roche) was added. Subsequently, the suspended sample was centrifuged at 15,000×g for 10 minutes at 4° C., and the supernatant was subjected to western blot. Mouse pancreatic tissue was rapidly frozen in liquid nitrogen. Proteins were extracted by TRIzol Reagent (Thermo Fisher Scientific K.K.), and the final protein concentration was adjusted to 4 μg/μL. For SDS-PAGE and blotting, Novex (registered trademark) NuPAGE (registered trademark) SDS-PAGE Gel system (Thermo Fisher Scientific K.K.) and iBlot™ 2 Dry Blotting System (Thermo Fisher Scientific K.K.) were used according to the manufacturer's instructions.
The bacteria cultured overnight were incubated with recombinant mouse trypsin (final concentration: 1 μg/mL) for 1 hour or with human trypsin (final concentration: 20 μg/mL) for 4 hours. Recombinant trypsin isoforms used were as follows: recombinant mouse PRSS2 (50383-M08H, Sino Biological, Inc.), recombinant human PRSS1 (LS-G135640), recombinant human PRSS2 (LS-G20167), and recombinant human PRSS3 (His-tag) (NBP2-52220).
In some experiments, recombinant mouse PRSS2 was first treated with one of the following trypsin inhibitors for 30 minutes before incubation with a P. clara culture solution. AEBSF (Sigma-Aldrich, final concentration: 2 mM), Leupeptin (Sigma-Aldrich, final concentration: 100 μM), and TLCK (Abcam plc., final concentration: 100 μM).
In some experiments, P. clara was cultured overnight in the presence of Tunicamycin (Sigma-Aldrich, final concentration: 10 μg/mL), 2-Fluoro-L-fucose (Cayman Chemical Company, final concentration: 250 μM), or the corresponding DMSO control, before incubation with recombinant mouse PRSS2.
In the experiment of evaluating the effect of Ca^2+, P. clara was cultured in a low Ca^2+ mGAM medium supplemented with or without 1 mM of Ca^2+, before incubation with recombinant mouse PRSS2. In the experiment in which the supernatant of P. clara was used, P. clara cultured overnight was filtered through a sterilization filter unit formed using a PVDF film having a pore size of 0.22 μm.

trypsin (PRSS2) = target: T2, trypsin (PRSS2) (Mus musculus, UniProt P07146); assay: Ex vivo incubation of mouse faeces at 37° C. for 48 hours, western blot; conditions: faeces of GF mice inoculated together with 2-mix, 37° C. 48 hours
T2 construct: the anionic trypsin protease was abundantly present in the cecal contents and the faeces; from tissue; host or cells: faeces and cecal contents of germ-free / gnotobiotic mice
T2 sequence (P07146 24-246): T1 sequence (P07146 24-246)
Procedure: Mouse faecal samples were suspended and diluted 50-fold with phosphate buffered saline (PBS) to which a protease inhibitor cocktail (Roche) was added. Subsequently, the suspended sample was centrifuged at 15,000×g for 10 minutes at 4° C., and the supernatant was subjected to western blot. Mouse pancreatic tissue was rapidly frozen in liquid nitrogen. Proteins were extracted by TRIzol Reagent (Thermo Fisher Scientific K.K.), and the final protein concentration was adjusted to 4 μg/μL. For SDS-PAGE and blotting, Novex (registered trademark) NuPAGE (registered trademark) SDS-PAGE Gel system (Thermo Fisher Scientific K.K.) and iBlotTM 2 Dry Blotting System (Thermo Fisher Scientific K.K.) were used according to the manufacturer's instructions. The antibodies used are as follows. A rabbit anti-mouse PRSS2 antibody (Cosmo Bio Co., Ltd.), a rabbit anti-mouse HSP90 antibody (#4877, Cell Signaling Technology, Inc.), a rabbit anti-human PRSS2 antibody (LS-B15726, LSBio), a rabbit anti-human PRSS1 antibody (LS-331381, LSBio), a rabbit anti-mouse TMPRSS2 antibody (LS-C373022, LSBio, against the sequence of the protease domain), a rabbit anti-6-His antibody ([…]-[…], Bethyl Laboratories, Inc.), a goat anti-mouse IgA a chain antibody (HRP) (ab97235, Abcam plc.), a rat anti-mouse κ chain antibody (HRP) (ab99632, Abcam plc.), a rabbit anti-mouse CELA3b antibody (OACD03205, Aviva Systems Biology Corporation), an anti-rabbit IgG antibody (HRP) (#7074, Cell Signaling Technology, Inc.), and a rabbit anti-mouse Reg3 antibody (51153-[…], Sino Biological, Inc.).

[1] = system: mouse hepatitis virus (MHV); assay: Mouse hepatitis virus (MHV) infection of gnotobiotic mice; assay type: in vivo; conditions: with 2-mix
Procedure: MHV-2 was provided by Makoto UJIKE (Nippon Veterinary and Life Science University). Five-week-old GF C57BL/6N male mice were obtained from CLEA Japan, Inc. or Sankyo Labo Service Corporation, and were separately bred in stainless steel isolators. 200 μL of 2-mix (B. uniformis and P. merdae)+P. clara (WT) or 2-mix+P. clara (Δ00502) was orally administered to the GF mice. Two weeks after inoculation, the mice were orally infected with 4.5×10^6 PFU of MHV-2, and the survival rate was observed every day for 10 days.
The liver and brain were collected on 4 or 5 days after infection to measure virus titers, and homogenization was performed with DNA/RNA Shield (Zymo Research Corporation). Viral RNA was extracted using a Quick-RNA Viral Kit (Zymo Research Corporation) according to the manufacturer's instructions, and cDNA was synthesized using ReverTra Ace (TOYOBO CO., LTD.) and a random primer (TOYOBO CO., LTD.).
Quantitative real-time PCR was performed with LightCycler 480 System (Roche) using THUNDERBIRD SYBR qPCR Mix (TOYOBO CO., LTD.) to amplify an orf1a gene. The relative amount of MHV was obtained from a standard curve created from a serial diluent solution of MHV genomic cDNA. The base sequences of the primers used are as follows.

With Paraprevotella clara [JCM 14859] the “decomposition of rmPRSS2 (western blot)” value (recombinant mouse PRSS2) was “effect of reducing trypsin”, the trypsin in faeces (trypsin (PRSS2)) was “reduced” and the “liver pathology (hematoxylin and eosin)” value [1] was “protected from the necrotizing liver pathology”. The “viral titers of MHV in liver and brain” value [1] was “significantly prevented the spread of the virus” and the “survival after MHV infection” value ([1]; oral MHV 14 days after inoculation) was “prolonged survival”.
